Laboratory results from patent US10112928B2, “Inhibitors of SYK” (Hoffmann-La Roche Inc., priority 2012, dated 2018).
Like-named read-outs stand apart in the source and are kept apart here.

What was measured:
[1] = target: recombinant human SYK360-635 (Spleen Tyrosine Kinase) (Homo sapiens (Human), UniProt P43405); assay: SYK kinase assay (33P ATP incorporation into biotinylated peptide); assay type: biochemical; settings: purified truncated SYK aa 360-635, 20 μM ATP; read-out: Syk_IC50
Protocol: Determination of IC50 of Spleen Tyrosine Kinase (SYK) Inhibition:
SYK kinase assay is a standard kinase assay adapted to a 96 well plate format. This assay is performed in 96-well format for IC50 determination with […] which represented 10 half log dilutions and a 40 μL reaction volume. The assay measures the incorporation of radiolabeled ^33P γATP into an N-terminally biotinylated peptide substrate, derived from naturally occurring phosphoacceptor consensus sequence (Biotin-11aa DY*E). Phosphorylated products were detected upon termination of reactions with EDTA and the addition of Streptavidin coated beads.
final concentration: 50 mM HEPES pH7.5
BSA: Bovine Serum Albumin Fraction V, fatty acid free (Roche Diagnostics GmbH, Cat. No. 9100221) diluted to a final concentration of 0.1%
Assay Dilution Buffer (ADB): 50 mM HEPES, 0.1 mM EGTA, 0.1 mM Na Vanadate, 0.1 mM β-glycerophosphate, 10 mM MgCl2, 1 mM DTT, 0.1% BSA, pH 7.5
Bead wash buffer: 10 g/L PBS (Phosphate buffered saline) with 2M NaCl+1% phosphoric acid.
DMSO and the mixture was incubated for 10 min at RT.
The kinase reaction was initiated by the addition of 10 μL 4× substrate cocktail containing the DYE peptide substrate [0 or 5 μM], ATP [20 μM] and ^33PγATP [2 μCi/rxn]. After incubation at 30° C. for 15 min, the reaction was terminated by the transfer of […] pf the reaction sample to a 96 well 0.65 μm Millipore MADVNOB membrane/plate containing 200 μL 5 mM EDTA and 20% Streptavidine coated beads in PBS.
The unbound radionucleotides were washed under vacuum with 3×250 μL 2M NaCl; 2×250 μL 2M NaCl+1% phosphoric acid; 1×250 μL H2O. After the last wash membrane/plates were transferred to an adaptor plate, heat dried for 15 min at 60° C., and 50 μL scintillation cocktail was added to each well and 4 h later the amount of radioactivity was counted in a top counter.

[2] = test system: CD69 up-regulation on B-cell lymphocytes (CD20+) stimulated with anti-human IgM; assay: B Cell CD69 Up-Regulation Assay in Human Whole Blood; assay type: cell-based; settings: read-out: Human whole blood IC50
Protocol: B Cell CD69 Up-Regulation Assay in Human Whole Blood
Human Blood was collected from healthy volunteers into Vacutainers (BD Biosciences, San Jose, Calif.) containing sodium heparin. Test compound was suspended in DMSO and nine half-log serial dilutions were made. The concentration of […] in the assay was 0.5%. 100 μL whole blood was pre-incubated with compound for 30 min and then stimulated with goat F(ab′)2 anti-human IgM (50 μg/mL, Southern Biotech) for 20 h. At the end of the 20 hour incubation, samples were incubated with fluorochrome-conjugated antibodies, PE mouse anti-human CD20 and APC Mouse anti-human CD69 (BD Biosciences), for 30 minutes. Samples were then lysed with Lyse solution (BD) and washed with PBS containing 2% fetal bovine serum (FBS). Fluorescent signals were acquired on flow cytometer LSR II (BD) and data were analyzed by Flow Jo. The percentage of activated (CD69hi) B-cell lymphocytes (CD20+) were determined using un-stimulated (negative control) and stimulated (positive control) wells as reference guidelines. The percentage inhibition was calculated and an IC50 curve was constructed using GraphPad Prism software with sigmoidal curve fitting.

[3] = human whole blood, anti-IgM stimulation 20 h, CD69hi CD20+ B cells

Row | IC50 [1] | IC50 [2, 3] | SMILES | IC50 ([2]; Homo sapiens, 20 h)
1 | 2 nM | 931 nM | Cc1ccc(Nc2cc(NC(CN)CC(C)C)nnc2C(N)=O)nc1C(C)C (stereo not shown) [Compound I-15, 6-(1-aminomethyl-3-methyl-butylamino)-4-(6-isopropyl-5-methyl-pyridin-2-ylamino)-pyridazine-3-carboxylic acid amide] | –
2 | 473 nM | – | CCc1ccccc1Oc1cc(Nc2cccc(C)n2)c(C(N)=O)nn1 [Compound I-7, 6-(2-ethylphenoxy)-4-(6-methylpyridin-2-ylamino)pyridazine-3-carboxamide] | –
3 | 1500 nM | – | Cc1cccc(Nc2cc(Oc3cccnc3)nnc2C(N)=O)n1 [Compound I-5, 4-(6-methylpyridin-2-ylamino)-6-(pyridin-3-yloxy)pyridazine-3-carboxamide] | –
4 | 965 nM | – | Cc1cccc(Nc2cc(Oc3cccc(C#N)c3)nnc2C(N)=O)n1 [Compound I-2, 6-(3-cyanophenoxy)-4-(6-methylpyridin-2-ylamino)pyridazine-3-carboxamide] | –
5 | – | 287 nM | Cc1ccc(Nc2cc(NCCN)nnc2C(N)=O)nc1N(C)C [Compound I-27, 6-(2-aminoethylamino)-4-(6-(dimethylamino)-5-methylpyridin-2-ylamino)pyridazine-3-carboxamide] | –
6 | 9.25 nM | 1500 nM | COc1nc(Nc2cc(NCCN)nnc2C(N)=O)ccc1C(C)C [Compound I-31, 6-(2-aminoethylamino)-4-(5-isopropyl-6-methoxypyridin-2-ylamino)pyridazine-3-carboxamide] | –
7 | 12.4 nM | 566 nM | CC(C)Oc1cccc(Nc2cc(NCCN)nnc2C(N)=O)n1 [Compound I-33, 6-(2-aminoethylamino)-4-(6-isopropoxypyridin-2-ylamino)pyridazine-3-carboxamide] | –
8 | – | 1800 nM | COC(C)(C)c1cccc(Nc2cc(NCCN)nnc2C(N)=O)n1 [Compound I-29, 6-(2-aminoethylamino)-4-(6-(2-methoxypropan-2-yl)pyridin-2-ylamino)pyridazine-3-carboxamide] | –
9 | 385 nM | – | Cc1cccc(Nc2cc(Oc3ccccc3C#N)nnc2C(N)=O)n1 [Compound I-6, 6-(2-cyanophenoxy)-4-(6-methylpyridin-2-ylamino)pyridazine-3-carboxamide] | –
10 | 124 nM | > 50000 nM | Cc1cc(C)cc(Nc2cc(Cl)nnc2C(N)=O)c1 [Compound I-14, 6-chloro-4-(3,5-dimethylphenylamino)pyridazine-3-carboxamide] | –
11 | 225 nM | > 5000 nM | NC(=O)c1n[nH]c(=O)cc1Nc1cccc(C2CC2)n1 [Compound I-11, 4-(6-cyclopropyl-pyridin-2-ylamino)-6-oxo-1,6-dihydro-pyridazine-3-carboxylic acid amide] | –
12 | – | 52 nM | NCCNc1cc(Nc2cccc(C(F)(F)F)n2)c(C(N)=O)nn1 [Compound I-25, 6-(2-aminoethylamino)-4-(6-(trifluoromethyl)pyridin-2-ylamino)pyridazine-3-carboxamide] | –
13 | 2180 nM | – | Cc1cccc(Nc2cc(Oc3ccccc3C3CC3)nnc2C(N)=O)n1 [Compound I-10, 6-(2-cyclopropylphenoxy)-4-(6-methylpyridin-2-ylamino)pyridazine-3-carboxamide] | –
14 | 2240 nM | – | Cc1cccc(Nc2cc(Oc3cccc(C(C)(C)N)c3)nnc2C(N)=O)n1 [Compound I-3, 6-(3-(2-aminopropan-2-yl)phenoxy)-4-(6-methylpyridin-2-ylamino)pyridazine-3-carboxamide] | –
15 | 135 nM | 6020 nM | CC(C)(C)c1cccc(Nc2cc(NCC3(N)CC3)nnc2C(N)=O)n1 [Compound I-19, 6-((1-aminocyclopropyl)methylamino)-4-(6-tert-butylpyridin-2-ylamino)pyridazine-3-carboxamide] | –
16 | – | 2060 nM | CC(C)(O)c1cccc(Nc2cc(NCCN)nnc2C(N)=O)n1 [Compound I-23, 6-(2-aminoethylamino)-4-(6-(2-hydroxypropan-2-yl)pyridin-2-ylamino)pyridazine-3-carboxamide] | –
17 | 41.8 nM | 548 nM | Cc1cccc(Nc2cc(N[C@@H]3CCCC[C@@H]3N)ccc2C(N)=O)n1 [Compound I-30, 4-((1R,2S)-2-amino-cyclohexylamino)-2-(6-methyl-pyridin-2-ylamino)-benzamide] | –
18 | – | 358 nM | CC(C)(C)c1nccc(Nc2cc(NCCN)nnc2C(N)=O)n1 [Compound I-28, 6-(2-aminoethylamino)-4-(2-tert-butylpyrimidin-4-ylamino)pyridazine-3-carboxamide] | –
19 | – | > 50000 nM | Cc1ccc(Nc2cc(OCCN)nnc2C(N)=O)nc1C [Compound I-13, 6-(2-aminoethoxy)-4-(5,6-dimethylpyridin-2-ylamino)pyridazine-3-carboxamide] | –
20 | 3980 nM | > 5000 nM | Cc1cc(C)nc(Nc2cc(NCCN)nnc2C(N)=O)n1 [Compound I-24, 6-(2-aminoethylamino)-4-(4,6-dimethylpyrimidin-2-ylamino)pyridazine-3-carboxamide] | –
21 | 1410 nM | – | Cc1cccc(Nc2cc(Oc3ccc(Cl)cc3C#N)nnc2C(N)=O)n1 [Compound I-9, 6-(4-chloro-2-cyanophenoxy)-4-(6-methylpyridin-2-ylamino)pyridazine-3-carboxamide] | –
22 | – | 573 nM | CC(C)(C#N)c1cccc(Nc2cc(NCCN)nnc2C(N)=O)n1 [Compound I-21, 6-(2-aminoethylamino)-4-(6-(2-cyanopropan-2-yl)pyridin-2-ylamino)pyridazine-3-carboxamide] | –
23 | 13 nM | 603 nM | CC(C)(C)c1cccc(Nc2cc(NCCN)nnc2C(N)=O)n1 [Compound I-16, 6-(2-aminoethylamino)-4-(6-tert-butylpyridin-2-ylamino)pyridazine-3-carboxamide] | –

Row | SMILES | IC50 [1] | IC50 [2, 3] | IC50 ([2]; Homo sapiens, 20 h)
24 | Cc1cccc(Nc2nc(CCCN)ncc2C(N)=O)c1 [Compound I-22, 2-(3-amino-propyl)-4-m-tolylamino-pyrimidine-5-carboxylic acid amide] | 2540 nM | > 5000 nM | –
25 | Cc1cccc(Nc2cc(Oc3ccccc3C)nnc2C(N)=O)n1 [Compound I-8, 4-(6-methylpyridin-2-ylamino)-6-(o-tolyloxy)pyridazine-3-carboxamide] | 373 nM | – | > 5000 nM
26 | Cc1cccc(Nc2cc(Oc3ccccc3)nnc2C(N)=O)n1 [Compound I-1, 4-(6-methylpyridin-2-ylamino)-6-phenoxypyridazine-3-carboxamide] | 1320 nM | – | –
